Assay results as given in WO2019242687A1, “1,3-dioxane-4,6-dione compound, and preparation method, pharmaceutical composition, and application thereof” (Shanghai Institute of Materia Medica of CAS, priority 2018, dated 2018).
Numbering of substitutions follows the chain as printed.

Key:
Assay type in all cases: biochemical
SIRT1 D348A = biological target: T1, SIRT1 D348A (Homo sapiens, UniProt Q96EB6, D348A); experiment: Inhibitory constant on SIRT1 mutant D348A
T1 construct: made in house
T1 sequence (Q96EB6 1-747 D348A): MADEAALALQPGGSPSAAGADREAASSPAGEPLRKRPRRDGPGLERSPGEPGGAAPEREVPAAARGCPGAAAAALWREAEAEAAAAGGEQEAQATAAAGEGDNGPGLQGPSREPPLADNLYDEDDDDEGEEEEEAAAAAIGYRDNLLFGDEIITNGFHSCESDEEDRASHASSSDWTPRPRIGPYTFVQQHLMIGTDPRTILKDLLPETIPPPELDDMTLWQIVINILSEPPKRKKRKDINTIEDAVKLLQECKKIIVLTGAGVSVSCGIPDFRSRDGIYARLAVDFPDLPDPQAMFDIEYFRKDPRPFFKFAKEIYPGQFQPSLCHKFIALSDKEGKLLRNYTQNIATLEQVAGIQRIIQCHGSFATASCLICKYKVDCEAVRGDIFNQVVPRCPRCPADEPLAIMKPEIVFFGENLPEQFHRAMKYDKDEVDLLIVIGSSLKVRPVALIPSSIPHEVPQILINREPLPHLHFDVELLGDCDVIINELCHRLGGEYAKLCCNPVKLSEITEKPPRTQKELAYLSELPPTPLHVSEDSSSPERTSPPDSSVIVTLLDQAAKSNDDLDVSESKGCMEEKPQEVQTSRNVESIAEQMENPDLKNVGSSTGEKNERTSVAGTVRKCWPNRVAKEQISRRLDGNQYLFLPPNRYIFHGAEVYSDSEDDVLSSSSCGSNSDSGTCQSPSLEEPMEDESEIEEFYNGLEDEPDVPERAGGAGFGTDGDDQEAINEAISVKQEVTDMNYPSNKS

SIRT1 I347A = biological target: T2, SIRT1 I347A (Homo sapiens, UniProt Q96EB6, I347A); experiment: Inhibitory constant on SIRT1 mutant I347A
T2 construct: made in house
T2 sequence (Q96EB6 1-747 I347A): T1 sequence (Q96EB6 1-747 D348A) with I347A, A348D

SIRT1 F414A = biological target: T3, SIRT1 F414A (Homo sapiens, UniProt Q96EB6, F414A); experiment: Inhibitory constant on SIRT1 mutant F414A
T3 construct: made in house
T3 sequence (Q96EB6 1-747 F414A): T1 sequence (Q96EB6 1-747 D348A) with A348D, F414A

SIRT1 wild type = biological target: T4, SIRT1 wild type (Homo sapiens, UniProt Q96EB6); experiment: Inhibitory constant on SIRT1 wild type
T4 sequence (Q96EB6 1-747): T1 sequence (Q96EB6 1-747 D348A) with A348D

**Q.** With `COc1cc(C=C2C(=O)OC(c3ccccc3)OC2=O)cc(Br)c1O` (centres unmarked) [Compound S3, 5-(3-bromo-4-hydroxy-5-methoxybenzylidene) -2-phenyl-1,3-dioxane-4,6-dione] as the molecule, how does the Ki (SIRT1 D348A) read?
**A.** The Ki was 4.33 µM.

**Q.** And the Ki (SIRT1 I347A)?
**A.** Its Ki is 0.67 µM.

**Q.** And the Ki (SIRT1 F414A)?
**A.** The Ki was 25.5 µM.

**Q.** And the “effect of mutation on inhibitory activity of compound” value (SIRT1 F414A; compared with the other mutants)?
**A.** Its value is “影响最大”.

**Q.** And the Ki (SIRT1 wild type)?
**A.** The Ki was 0.16 µM.
